According to patent US11291705B2, “Use of caspase-3 inhibitors and caspase-3 activators in the manufacture of medicament for treating cancer and wound healing” (Technion Research & Development Foundation Limited, priority 2016, dated 2022):
“Also recorded” adds a separate entry of the source.

Tests used:
sebaceous gland (SG) = assay: Sebaceous gland (SG) size and cell proliferation in mice injected subcutaneously with caspase-3 inhibitors or activators; type: in vivo; conditions: for SG size: eight week old mice; for SG size / cell proliferation / proliferative rates in the SG: subcutaneous injection for 7 days; for cell proliferation / proliferative rates in the SG / caspase-3 activation in the SG: mice; for caspase-3 activation in the SG: subcutaneous injection for seven days
Description: Immunofluorescence—Skins were embedded in OCT, frozen, sectioned, and fixed in 4% paraformaldehyde. Tail samples were treated with 5 mM EDTA for 4 hours at 37° C. to separate skin epithelium from dermis and fixed in formal saline for 2 hours at room temperature. Dorsal samples were treated with 5 mM EDTA for 6 hours at 37° C. to separate skin epithelium from dermis and fixed in formal saline for 1 hour at room temperature. Samples were blocked for 2 hours in Blocking buffer consisting of 10% Goat serum, 2% BSA, 0.2% Triton-X. Primary antibodies were diluted in blocking buffer and tissue/sections were incubated overnight at 4° C. Whole mounts or sections were washed at least 3 times with PBS. Secondary antibodies were incubated for 1 hour at room temperature followed by 4 washes with PBS. The following primary antibodies were used: YAP (Rabbit, 1:100, Cell Signalling, Mouse 1:100 Santa Cruz), pYAP (Rabbit, 1:100 Cell Signalling), α-E-Catenin (Rabbit, 1:100, Cell Signalling), Ki67 (Rabbit, 1:100, Abcam; Rat, 1:100, eBioscience), CD34 (Rat, 1:100, eBioscience), K15 (Mouse, 1:100, Thermo, Chicken, 1:1000, Abcam), Sox9 (Rabbit, 1:100, Millipore, Goat, 1:50, Santa Cruz). Cleaved-Caspase-3 (Rabbit, 1:100, Cell signalling), Phalloidin (1:250, Life Technologies). TUNEL was performed using ApopTag TdT (Millipore). […] Analysis was performed on Zeiss LSM 880 confocal microscope.

[1] = system: murine melanoma cell line B16F10; assay: B16F10 melanoma tumors in mice
Description: FIG. 21E—Resected tumors stained for the proliferative marker Ki67 (red). […] Denotation: CP3, Caspase-3. ** (P<0.01), *** (P<0.001).
FIG. 22C—A histogram displaying quantification of tumor weight (mg) in treated (with Ivachtin) and non-treated (DMSO) animals. […] FIG. 22E—A histogram depicting quantification of Ki67^+ melanoma cells in vivo after treatment with Ivachtin. […] FIG. 22G—A histogram depicting quantification of TUNEL^+ melanoma cells. Denotation: CP3, Caspase-3. Scale bars: 10 μm (FIGS. 22D and 22F). * (P<0.05).

YAP [2] = assay: YAP nuclear translocation and pYAP levels in EGFPhigh SGPZ cells; type: cell-based, mice; conditions: immunoblot
Description: Cell culture—The HaCaT and HEK293 cell lines were cultured in DMEM medium supplemented with 10% FBS, 1% P/S (Pen/Strep) and 1% L-glutamine. Integrin α6^+CD34^+ HFSCs and integrin α6^+CD34^−EGFP^high SGPZ cells were isolated and cultured in HFSC media on sustaining J2 feeder cells. Serum was chelated for a calcium concentration of 50 μM. […] Cells were fixed in 4% PFA for 10 minutes for immunofluorescence analysis or harvested for protein or RNA extraction.
Given that Caspase-3 inhibition hindered cell number and proliferation in vitro the present inventors next examined whether this was mediated via YAP in EGFP^high SGPZ cells using K15^+ SGPZ cells. […] Similar findings as to effect of caspase-3 inhibition on YAP activation and proliferation were also obtained in HaCaT and Hek293E3 cells (FIGS. 3J-K, FIGS. 11B-F).

human melanoma cells = assay: GFP-infected human melanoma cells injected into recipient mice; conditions: mouse
Description: FIG. 15A—Melanoma cell were injected into recipient mice. […] Representative image 6 days after first treatment. FIG. 15B—quantification of tumor development indicates inhibition of tumor size in response to caspase-3 inhibition. FIG. 15C—Extracted tumors were analyzed for proliferation using the Ki67 marker and the presence of GFP^+ melanoma cells. FIG. 15D—Tumors treated with the caspase-3 activator ABT-199 result in a dramatic increase in tumor mass. […] Scale bars, 20 μm.
Examination of the effect of caspase-3 inhibition on melanoma formation in vivo—For this aim human melanoma cells were stably infected with GFP. Cells were then injected into to recipient mice and the effect of administrating caspase-3 inhibitors was monitored.

[3] = system: excision wounds (1 cm^2) on dorsal skin; assay: Wound repair of full thickness excision wounds on dorsal skin; type: in vivo, mice
Excerpt: For all wound repair experiments, mice were sedated with isofluorane. Mice were shaved with electric clippers and treated topically with a hair removal cream for a few minutes (Nair). Full-thickness excision wounds (1 cm^2) were generated on the dorsal skins and monitored for wound coverage. PWI, mice were individually housed. At the desired time PWI, mice were euthanized with CO2 and the wounded skins were harvested and either embedded in OCT or prepared for whole mounts as described above or for protein extraction.
Inhibition of caspase-3 impairs wound repair—Since YAP is known to play a chief role in regeneration (34), the present inventors investigated whether in vivo inhibition of Caspase-3 affects the wound repair dynamic by modulating YAP activity. […] Full thickness excision wounds (1.0 cm^2) were generated on the dorsalbacks and monitored for wound coverage. In control mice, three days post wound infliction (PWI) the wound size was reduced by 60% while in Ivachtin and z-DEVD-fink (SEQ ID NO: 71) treated mice, it was reduced by only 10% and 20%, respectively (FIG. 5A and FIG. 5B).

[4] = system: integrin α6+CD34−EGFPhigh SGPZ cells; assay: Proliferation and expansion of isolated SGPZ cells treated with caspase-3 inhibitors; type: cell-based, mice
Description: Flow Cytometry—SGPZ cell isolation and FACS analysis were performed with K15-EGFP mice and CD34, integrin α6 and Sca1 antibodies. K15-GFP^high cells were isolated from ears and dorsal skin of 8-week old B6.Cg-Tg(Krt1-15-EGFP)2Cot/J mice.

[5] = system: integrin α6+CD34+ HFSCs, HaCaT keratinocytes and Hek293E3 cells; assay: Expansion of other cell types treated with caspase-3 inhibitors; type: cell-based
Description: In order to examine whether Caspase-3 affects the expansion of other cell types the present inventors isolated integrin α6^+CD34^+ HFSCs from second telogen mice.

B16F10 melanoma cells = B16F10 melanoma cells in vitro: growth, Ki67, pYAP, α-Catenin; type: cell-based
Excerpt: FIG. 23D—A histogram depicting quantifications of 501-A total cells number after treatment with Z-DEVD-fink (SEQ ID NO: 71). FIG. 23E—Images depicting B16F10 melanoma cells stained for Ki67 (red), active cleaved Caspase-3 (green) and nuclear counterstain DAPI (blue). […] Insets are zoom in on specific cells, Denotation: CP3, Caspase-3. Scale bars: 100 μm. ** (P<0.01), *** (P<0.001).
FIG. 24A—Images depicting B16F10 melanoma cells stained for pYAP (red). […] FIG. 24D—Images depicting B16F10 melanoma cells stained for α-Catenin (green). […] FIG. 24E—Immunoblot analysis of proteins isolated from B16F10 melanoma cells using antibodies against pYAP, α-Catenin and α-Tubulin as control.

α-Catenin [6] = assay: Immunoblot of α-Catenin in EGFPhigh SGPZ cells; type: cell-based, mice; conditions: extracts from EGFPhigh SGPZ cells
XIAP [7] = assay: XIAP expression in treated mice; type: in vivo; conditions: for XIAP levels: treated mice
Excerpt: In Drosophila, Yorkie (Yki) the homolog of YAP directly regulates the transcription of Death-associated inhibitor of apoptosis 1 (Diap1), which is the functional equivalent of XIAP [Fuchs, Y. & Steller, H. Programmed cell death in animal development and disease. Cell 147, 742-758 (2011); Zhang, L., et al. The TEAD/TEF family of transcription factor Scalloped mediates Hippo signaling in organ size control. Developmental cell 14, 377-387 (2008)]. Therefore, and without being bound by any theory, the present inventors hypothesized that in the SG, XIAP might be transcriptionally regulated by YAP to balance caspase-3 activity. […] Moreover, XIAP protein levels were increased upon caspase-3 activation with PAC-1, but this effect was abolished when YAP was inhibited (FIG. 29D).

YAP [8] = assay: Nuclear YAP and Ki67 in SGs of mice treated with PAC-1 and/or Verteporfin; type: in vivo
Excerpt: Therefore, the present inventors investigated whether SG homeostasis is governed by YAP activity in a caspase-3 dependent manner. For this aim the present inventors employed the YAP chemical inhibitor, Verteporfin, which is known to inhibit the interaction between YAP and TEAD in the nucleus and block transcriptional activity (reference 42). The present inventor administered Verteporfin either alone or in combination with the caspase-3 activator PAC-1.

α-Catenin [9] = assay: α-Catenin levels in vivo after caspase-3 inhibition or activation; set-up: species or system mice; conditions: Western blot and immunofluorescence
Description: TUNEL was performed using ApopTag TdT (Millipore). […] Analysis was performed on Zeiss LSM 880 confocal microscope.
The levels of α-Catenin are known to be a critical factor in the regulation of YAP (27). In low confluent cells, diminished levels of α-Catenin serve as a mechanotransduction mechanism that instructs the nuclear translocation of YAP and drives proliferation (27, 33). […] The present inventors therefore examined the levels of α-Catenin both in vitro and in vivo, by employing both Western blot analysis and immunofluorescence.

XIAP [10] = assay: XIAP protein and mRNA levels in EGFPhigh SGPZ cells; type: cell-based, mice
Description: RNA extraction, reverse transcription and real-time PCR (RT-PCR)—RNA was isolated using Trizol (Sigma) and up to 2 μg of RNA were subjected to cDNA synthesis (Applied Biosystems). Real time PCR was carried out using the PerfeCTa SYBR Green FastMix (Quanta), with gene-specific primers [RpLp0 […] (SEQ ID NO:50) and […] (SEQ ID NO:51); WTIP […] (SEQ ID NO:52) and […] (SEQ ID NO:53); ErbB4 […] (SEQ ID NO:54) and […] (SEQ ID NO:55); HOXC13 […] (SEQ ID NO:56) and […] (SEQ ID NO:57); HOXA5 […] (SEQ ID NO:58) and […] (SEQ ID NO:59)]. Amplicon levels were analysed in triplicate and quantitated relative to a standard curve comprising cDNA, and values normalized to levels of the housekeeping gene (Rplp0 or Gapdh). Reactions were: 3 minutes at 95° C., then 40 cycles of 10 seconds at 95° C. and 30 seconds at 60° C. with addition of melt curve step: 10 seconds at 95° C., and increments of 0.5° C. every 5 seconds between 65° C. to 95° C.
In Drosophila, Yorkie (Yki) the homolog of YAP directly regulates the transcription of Death-associated inhibitor of apoptosis 1 (Diap1), which is the functional equivalent of XIAP [Fuchs, Y. & Steller, H. Programmed cell death in animal development and disease. Cell 147, 742-758 (2011); Zhang, L., et al. The TEAD/TEF family of transcription factor Scalloped mediates Hippo signaling in organ size control. Developmental cell 14, 377-387 (2008)]. […]

de novo regenerated SGs = assay: De novo SG regeneration from the wound bed after full thickness excision wounds; type: in vivo, mice; conditions: for size and maturation of regenerated SGs: regenerating skin after wounding
Description: The wound healing process can stimulate de novo regeneration of HFs and SGs (reference 35). As such, the present inventors utilized this model to examine whether caspase-3 activation can drive SG development and maturation. Eight-week old mice were injected with DMSO, PAC-1 or PAC-1 along with Verteporfin for two days prior to wound infliction. Full thickness excision wounds (1 cm^2) were generated on the dorsalskins and skin samples were harvested 20 and 30 days post wound infliction. […] Importantly, YAP inhibition reversed these regenerative phenotypes, leading to a 10-fold reduction in the number of de novo formed SGs (FIGS. 17D and E).

With `CC1(C)CCC(CN2CCN(c3ccc(C(=O)NS(=O)(=O)c4ccc(NCC5CCOCC5)c([N+](=O)[O-])c4)c(Oc4cnc5[nH]ccc5c4)c3)CC2)=C(c2ccc(Cl)cc2)C1` [ABT-199] the SG size (sebaceous gland (SG)) was “significant increase”, the “cell proliferation / proliferative rates in the SG” value (sebaceous gland (SG)) was “significant increase” and the “caspase-3 activation in the SG” value (sebaceous gland (SG)) was “significant increase”. For the same molecule, the “tumor volume and weight” value ([1]; established B16F10 tumors) was “increased in volume and weight”, the “proliferation (Ki67) in resected tumors” value ([1]; mouse, in vivo) was “higher proliferation; also recorded: high levels of proliferation” and the tumor size ([1]; mouse, in vivo) was “dramatic increase in size”. The “activated cleaved Caspase-3 in resected tumors” value ([1]; staining) was “higher expression”, the “levels of pYAP” value (YAP [2]) was “significantly decreased” and the “tumor expansion by in vivo imaging” value (human melanoma cells) was “dramatically expanded”. The tumor mass (human melanoma cells; in vivo) was “two-fold increased”.

In the case of `CC(=O)OCCN1C(=O)c2c(C)nc3ccc(S(=O)(=O)N4CCOCC4)cc3c2C1=O` [Ivachtin], the “size of the SG, length, width and number of proliferating cells” value (sebaceous gland (SG); 20 and 30 days post injection) is reported as “returned to normal”, the SG size (sebaceous gland (SG)) is reported as “decrease in SG size” and the “cell proliferation / proliferative rates in the SG” value (sebaceous gland (SG)) is reported as “impaired proliferative rates; also recorded: significant decrease”. The “levels of α-Catenin in wounded skin / invading keratinocytes” value ([3]; 5-7 days PWI) was “increased α-Catenin levels”, the “cleavage of α-Catenin in wounded dorsalskin” value ([3]; 7 days PWI, Western blot) was “impairment in cleavage” and the “number of nuclear YAP and Ki67 cells” value ([3]; 12 days PWI) was “decreased number”. The wound closure ([3]; FIGS. 19A-F) was “significant decrease”, the “effect of combining caspase-3 and YAP inhibition on wound healing” value ([3]; Ivachtin, Verteporfin or both) was “no additive effect” and the “healing at all time points” value ([3]; daily subcutaneous injection) was “less efficient”. The “wound size reduced by” value ([3]; three days post wound infliction, injected from 2 days prior to wounding) was 10%, the tumor weight ([1]; established B16F10 tumors) was “decrease in tumor weight” and the “YAP positive cells in resected tumors” value ([1]; mouse, in vivo) was “significant decreases”. The “cell death by TUNEL assay in resected tumors” value ([1]; mouse, in vivo) was “enhanced cell death”, the “proliferation (Ki67) in resected tumors” value ([1]; mouse, in vivo) was “reduced expression; also recorded: attenuated proliferation” and the tumor size ([1]; mouse, in vivo) was “smaller tumors”. For the same molecule, the “number of cells positive for proliferative markers Ki67 and PCNA” value ([4]; immunostaining, Ivachtin daily, five days) was “three-fold decrease”, the “effect on cell number and colony formation” value ([4]; not supplemented daily) was “very limited effect” and the “cellular expansion (proliferation and cell number)” value ([4]; supplemented daily) was “significant impairment”. The expansion of cells ([5]; daily treatment) was “impaired the expansion”, the “effect on expansion of cells” value ([5]; not supplemented daily) was “very limited effect” and the “phosphorylated YAP-positive cells (pYAP+)” value (B16F10 melanoma cells; compared to DMSO) was “significant increases”. For the same molecule, the “growth of B16F10 melanoma cells” value (B16F10 melanoma cells; continuous presence of inhibitor) was “hindered”.

For `C=CCc1cccc(/C=N/NC(=O)CN2CCN(Cc3ccccc3)CC2)c1O` [PAC-1], the “levels of full length α-Catenin” value (α-Catenin [6]) was “decreased levels”, the “~90 kDa and ~85 kDa α-Catenin bands (cleaved)” value (α-Catenin [6]) was “much higher levels” and the SG size (sebaceous gland (SG)) was “significant increase”. For the same molecule, the “cell proliferation / proliferative rates in the SG” value (sebaceous gland (SG)) was “significant increase”, the “caspase-3 activation in the SG” value (sebaceous gland (SG)) was “significant increase” and the “number of nuclear YAP and Ki67 cells” value ([3]; 7 days PWI) was “increased number”. The “wound healing compared with control” value ([3]; PAC-1 injected daily subcutaneously) was “healed significantly faster than control”, the XIAP levels (XIAP [7]) was “increased” and the “levels of pYAP” value (YAP [2]) was “significantly decreased”. For the same molecule, the “numbers of nuclear YAP+/Ki67+ cells in SGs” value (YAP [8]; PAC-1 alone) was “higher numbers”, the “levels of α-Catenin” value (α-Catenin [9]) was “decreased levels” and the XIAP levels (XIAP [10]; EGFPhigh SGPZ cells) was “increase in XIAP levels”. For the same molecule, the “number of regenerated de novo SGs” value (de novo regenerated SGs; 20 and 30 days post wound infliction) was “striking increase” and the “size and maturation of regenerated SGs” value (de novo regenerated SGs) was “significantly larger and more developed SGs”.

For Verteporfin, the “increased repair by PAC1 under YAP inhibition” value ([3]; PAC1 with VP) was “could be revered”, the “PAC-1 induced increase of XIAP protein levels when YAP was inhibited” value (XIAP [7]; PAC-1 with Verteporfin) was “abolished” and the XIAP levels (XIAP [7]) was “decrease in XIAP levels”. The “proliferative effect of PAC-1 (Ki67+ cells in SGs)” value (YAP [8]; Verteporfin in combination with PAC-1) was “able to overcome the positive proliferative effect of PAC-1”, the “nuclear translocation of YAP” value (YAP [8]; Verteporfin treatment) was “did not affect” and the “XIAP mRNA levels, lower compared to control cells” value (XIAP [10]; RNA from EGFPhigh SGPZ cells) was 2 fold. The “size and maturation of regenerated SGs” value (de novo regenerated SGs) was “did not develop into mature SGs”.
